Drawing on patent US11578084B2, “Condensed ring compounds having dopamine D3 receptor antagonistic effect” (Shionogi & Co., Ltd., priority 2018, dated 2023), this text covers inhibition and Ki for 35 compounds.

Like-named read-outs stand apart in the source and are kept apart here.

In one series the target is hERG channel (IKr) (Homo sapiens (Human), UniProt Q12809). Description: hERG test (whole cell patch clamp, IKr). In kind it is cell-based. As to conditions: human, CHO cells expressing hERG channel, pH 7.4, 3 μM, tail peak current. From the text:
Test Example 10: hERG Test
For the purpose of assessing risk of an electrocardiogram QT interval prolongation of the compound of the present invention, effects of the compound of the present invention on delayed rectifier K+ current (IKr), which plays an important role in the ventricular repolarization process, was studied using CHO cells expressing human ether-a-go-go related gene (hERG) channel.
After a cell was retained at a membrane potential of −80 mV by whole cell patch clamp method using an automated patch clamp system (QPatch; Sophion Bioscience A/S) and gave a leak potential of −50 mV, IKr induced by depolarization pulse stimulation at +20 mV for 2 seconds and, further, repolarization pulse stimulation at −50 mV for 2 seconds, was recorded. After the generated current was stabilized, extracellular solution (NaCl: 145 mmol/L, KCl: 4 mmol/L, CaCl2): 2 mmol/L, MgCl2: 1 mmol/L, glucose: 10 mmol/L, HEPES (4-(2-hydroxyethyl)-1-piperazineethanesulfonic acid): 10 mmol/L, pH=7.4), in which the compound of the present invention had been dissolved at an objective concentration in the extracellular solution, was applied to the cell at room temperature for 7 minutes or more. From the recording IKr, an absolute value of the tail peak current was measured based on the current value at the resting membrane potential using analysis software (QPatch Assay software; Sophion Bioscience A/S). Further, the % inhibition of tail peak current for the compound of the present invention relative to the tail peak current after application of the solution (0.1% dimethyl sulfoxide solution) was calculated to assess influence of the compound of the present invention on IKr.

Series [1] has as its target human recombinant dopamine D2 receptor (Homo sapiens (Human), UniProt P14416). The series is described as follows: Test of binding inhibition for dopamine D2 receptor ([3H]-Methylspiperone SPA). To be noted: Jump-In HEK cell membranes, read-out: hD2_Ki. The gist of the method:
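Scintillation proximity competition binding of [3H]-Methylspiperone to Jump-In HEK membranes expressing human D2 (2 μg protein/well) on WGA SPA beads (0.2 mg/well), 120 min at 25° C.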

Series [2] deals with human recombinant dopamine D3 receptor (Homo sapiens (Human), UniProt P35462). Description: Test of binding inhibition for dopamine D3 receptor ([3H]-Methylspiperone SPA). To be noted: Jump-In HEK cell membranes, 2 nM [3H]-Methylspiperone, 120 min at 25° C.; read-out: hD3_Ki. The gist of the method:
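SPA radioligand binding on Jump-In HEK membranes expressing human D3 receptor (4 µg/well) with 2 nM [3H]-methylspiperone (final), incubated 120 min at 25 °C. Non-specific binding defined with 10 µM butaclamol. Percent inhibition computed against total and non-specific binding; Ki from dose-response curves.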

[3] abbreviates: 1.2 nM [3H]-Methylspiperone, 120 min at 25° C.

hERG channel (IKr), sequence (Q12809 whole entry): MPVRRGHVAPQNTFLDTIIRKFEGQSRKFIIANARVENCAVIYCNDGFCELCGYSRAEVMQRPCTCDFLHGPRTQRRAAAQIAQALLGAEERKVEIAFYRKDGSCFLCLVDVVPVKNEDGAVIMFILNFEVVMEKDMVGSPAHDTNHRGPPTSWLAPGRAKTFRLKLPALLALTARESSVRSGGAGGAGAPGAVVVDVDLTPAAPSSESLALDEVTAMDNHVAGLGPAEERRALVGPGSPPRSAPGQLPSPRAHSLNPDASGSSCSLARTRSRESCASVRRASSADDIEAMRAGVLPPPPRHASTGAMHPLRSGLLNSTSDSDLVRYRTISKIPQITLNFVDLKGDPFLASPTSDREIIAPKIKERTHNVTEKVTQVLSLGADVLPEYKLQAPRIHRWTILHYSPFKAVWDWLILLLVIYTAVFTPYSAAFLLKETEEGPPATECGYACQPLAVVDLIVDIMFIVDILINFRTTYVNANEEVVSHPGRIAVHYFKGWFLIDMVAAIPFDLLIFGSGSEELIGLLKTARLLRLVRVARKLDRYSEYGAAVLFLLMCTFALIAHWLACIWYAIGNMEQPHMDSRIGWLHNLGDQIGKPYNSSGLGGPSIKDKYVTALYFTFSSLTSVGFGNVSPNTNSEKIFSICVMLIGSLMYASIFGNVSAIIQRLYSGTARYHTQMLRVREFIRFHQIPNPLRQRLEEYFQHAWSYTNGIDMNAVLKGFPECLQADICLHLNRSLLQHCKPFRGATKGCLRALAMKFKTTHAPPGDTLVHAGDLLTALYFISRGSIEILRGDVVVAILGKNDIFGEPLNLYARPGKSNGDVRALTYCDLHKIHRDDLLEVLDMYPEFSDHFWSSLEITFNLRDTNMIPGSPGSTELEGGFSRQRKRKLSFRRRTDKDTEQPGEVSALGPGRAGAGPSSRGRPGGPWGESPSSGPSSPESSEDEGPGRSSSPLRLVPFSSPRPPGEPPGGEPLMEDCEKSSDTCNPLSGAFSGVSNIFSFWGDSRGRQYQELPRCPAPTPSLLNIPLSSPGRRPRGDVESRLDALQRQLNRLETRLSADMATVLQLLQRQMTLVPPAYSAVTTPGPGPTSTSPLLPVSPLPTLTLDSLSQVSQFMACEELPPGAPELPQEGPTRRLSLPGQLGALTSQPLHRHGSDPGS
human recombinant dopamine D2 receptor, sequence (P14416 whole entry): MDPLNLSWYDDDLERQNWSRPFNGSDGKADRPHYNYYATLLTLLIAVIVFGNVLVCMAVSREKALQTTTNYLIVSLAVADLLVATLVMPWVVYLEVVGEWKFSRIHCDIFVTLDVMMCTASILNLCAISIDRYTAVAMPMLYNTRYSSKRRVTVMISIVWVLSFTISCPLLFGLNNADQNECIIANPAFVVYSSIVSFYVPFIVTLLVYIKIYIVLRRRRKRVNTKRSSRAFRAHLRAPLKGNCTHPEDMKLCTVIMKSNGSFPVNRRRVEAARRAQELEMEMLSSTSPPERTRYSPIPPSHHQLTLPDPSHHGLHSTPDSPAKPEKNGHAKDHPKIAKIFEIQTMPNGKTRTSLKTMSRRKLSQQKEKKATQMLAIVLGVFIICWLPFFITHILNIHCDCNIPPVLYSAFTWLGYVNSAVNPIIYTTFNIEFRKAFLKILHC
human recombinant dopamine D3 receptor, sequence (P35462 whole entry): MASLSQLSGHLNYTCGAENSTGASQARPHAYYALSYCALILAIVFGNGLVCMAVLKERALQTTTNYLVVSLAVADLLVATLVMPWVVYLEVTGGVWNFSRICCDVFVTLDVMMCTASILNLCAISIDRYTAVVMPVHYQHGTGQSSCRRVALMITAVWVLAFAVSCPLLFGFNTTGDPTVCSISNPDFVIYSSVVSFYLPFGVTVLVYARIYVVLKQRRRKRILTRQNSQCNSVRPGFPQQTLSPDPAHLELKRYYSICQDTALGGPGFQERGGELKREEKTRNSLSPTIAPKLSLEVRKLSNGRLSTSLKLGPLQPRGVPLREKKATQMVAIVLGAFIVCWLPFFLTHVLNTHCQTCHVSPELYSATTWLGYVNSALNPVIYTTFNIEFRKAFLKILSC

On hERG channel (IKr), `Cn1c(C(=O)NN2CCC(CCN3CCc4sc(OCC(F)(F)F)nc4C3)CC2)cccc1=O` [Example I-080] gave an inhibition at 3 µM of 5.68%. Besides, the results for the Ki in series [1] (setting [3]) and in series [2] were 2100 nM and 0.81 nM, respectively.
The like results for `Cc1nnc(CC(=O)N[C@H]2CC[C@](F)(CCN3CCc4nc(OCC(C)(F)F)sc4CC3)CC2)o1` [Example I-014] were, in that order, 3.83%, 980 nM and 0.48 nM.
The corresponding values for `Cc1ncc(CC(=O)N[C@H]2CC[C@](F)(CCN3CCc4ccc(OCC(F)F)nc4CC3)CC2)o1` [Example I-026] are 20.1%, 1100 nM and 0.095 nM.
For the compound `Cc1nc(CC(=O)N[C@H]2CC[C@](F)(CCN3CCc4nc(OCC(C)(F)F)sc4CC3)CC2)no1` [Example I-013], testing at 3 µM on hERG channel (IKr) gave an inhibition of 21.4%. Further, the figures for the Ki in series [1] (setting [3]) and in series [2] were 920 nM and 0.53 nM, respectively.
On to `Cn1ncc(CC(=O)N[C@H]2CC[C@](F)(CCN3CCc4nc(OCC(F)(F)F)sc4CC3)CC2)n1` [I′-37], for which testing at 3 µM against hERG channel (IKr) gave an inhibition of 19.6%. Moreover, the results for the Ki in series [1] ([3H]-Methylspiperone 1.2 nM) and in series [2] were 1600 nM and 0.18 nM, respectively.
`Cc1ncc(CC(=O)N[C@H]2CC[C@H](CCN3CCc4nc(OCCC(F)(F)F)sc4CC3)CC2)o1` [Example I-102]: at 3 µM the inhibition on hERG channel (IKr) was 32.2%. Besides, the Ki in series [1] (setting [3]) came to 670 nM; in series [2], 0.13 nM.
The compound `Cc1ncc(/C=C/C(=O)N[C@H]2CC[C@H](CCN3CCc4nc(OCC(C)(F)F)sc4CC3)CC2)cn1` [Example I-037] had an inhibition at 3 µM against hERG channel (IKr) of 28%. The Ki in series [1] (setting [3]) turned out to be 240 nM; in series [2], 0.097 nM.
As for `Cc1ncccc1C(=O)N[C@H]1CC[C@](F)(CCN2CCc3nc(OCC(C)(F)F)sc3CC2)CC1` [Example I-042], the inhibition at 3 µM against hERG channel (IKr) was 10.8%. For the same compound, the Ki was 1000 nM in series [1] (setting [3]) and 0.57 nM in series [2].
The like results for `Cn1cc2c(C(=O)NN3CCC(F)(CCN4CCc5sc(OCC(F)(F)F)nc5C4)CC3)cccc2n1` [Example I-028] were, in that order, 9.09%, 640 nM and 0.41 nM.
The like results for `Cc1nc(CC(=O)N[C@H]2CC[C@](F)(CCN3CCc4ccc(OCC(F)F)nc4CC3)CC2)no1` [Example I-024] were, in that order, 18.7%, more than 2200 nM and 0.2 nM.
In turn, `Cc1ncccc1C(=O)N[C@H]1CC[C@H](CCN2CCc3nc(OCCC(F)(F)F)sc3CC2)CC1` [Example I-099] registered an inhibition at 3 µM on hERG channel (IKr) of 29.4%. The Ki in series [1] (setting [3]) was found to be 1600 nM; in series [2] it was 0.97 nM.
The corresponding values for `Cn1cc(CC(=O)N[C@H]2CC[C@H](CCN3CCc4nc(OCC(C)(F)F)sc4CC3)CC2)cn1` [Example I-004] are 21.6%, 700 nM and 0.15 nM.
The like results for `Cc1nc(CC(=O)N[C@H]2CC[C@H](CCN3CCc4nc(OCC(F)(F)F)sc4CC3)CC2)n(C)n1` [Example I-107] were, in that order, 3.75%, 1000 nM and 0.54 nM.
The corresponding values for `Cn1cc2c(C(=O)N[C@H]3CC4(C3)C[C@](F)(CCN3CCc5nc(OCC(F)(F)F)sc5CC3)C4)cccc2n1` (single isomer, unassigned) [Example I-049] are 36.8%, 310 nM and 0.33 nM.
In turn, `CC[C@@H](C)Oc1ccc2c(n1)CCN(CC[C@]1(F)CC[C@@H](NC(=O)Cc3nnc(C)o3)CC1)CC2` [Example I-108] came in with an inhibition at 3 µM against hERG channel (IKr) of 1.06%. Besides, the Ki in series [1] (setting [3]) was found to be 1200 nM; in series [2] it was 0.89 nM.
The corresponding values for `CN1Cc2c(C(=O)N[C@H]3CC[C@H](CCN4CCc5sc(C6CC(F)(F)C6)nc5C4)CC3)cccc2C1=O` [Example I-012] are 19%, 260 nM and 0.15 nM.
The corresponding values for `Cc1nnc(CC(=O)N[C@H]2CC[C@](F)(CCN3CCc4nc(OCC(C)(F)F)sc4CC3)CC2)s1` [Example I-073] are 25.9%, 450 nM and 0.29 nM.
The corresponding values for `Cn1cc(CC(=O)N[C@H]2CC[C@H](CCN3CCc4nc(OC5CC(F)(F)C5)sc4CC3)CC2)cn1` [Example I-021] are 24.3%, 1900 nM and 0.15 nM.
Consider `Cn1cc(CC(=O)N[C@H]2CC[C@](F)(CCN3CCc4ccc(OCC(F)F)nc4CC3)CC2)cn1` [Example I-027], for which 3 µM produced 14.3% inhibition against hERG channel (IKr). The Ki in series [1] (setting [3]) was 1000 nM; in series [2], 0.23 nM.
The corresponding values for `Cn1cc(CC(=O)N[C@H]2CC[C@](F)(CCN3CCc4ccc(OCC(C)(F)F)nc4CC3)CC2)cn1` [Example I-017] are 21.6%, 240 nM and 0.063 nM.
The like results for `Cn1ncc(CC(=O)N[C@H]2CC[C@H](CCN3CCc4nc(OC5CC(F)(F)C5)sc4CC3)CC2)n1` [Example I-023] were, in that order, 16.5%, more than 2200 nM and 0.11 nM.
The corresponding values for `Cc1ncc(OCC(=O)N[C@H]2CC[C@](F)(CCN3CCc4ccc(OCC(F)F)nc4CC3)CC2)cn1` [Example I-030] are 26.1%, 610 nM and 0.3 nM.
The compound `Cn1cc2c(C(=O)NN3CCC(CCN4CCc5sc(OCC(F)(F)F)nc5C4)CC3)ccc(F)c2n1` [Example I-081] gave an inhibition at 3 µM against hERG channel (IKr) of 5.59%. Further, the Ki in series [1] (setting [3]) stood at 640 nM; in series [2] it was 0.2 nM.
In turn, `Cn1cc2c(C(=O)NN3CCC(CCN4CCc5sc(OCC(C)(F)F)nc5C4)CC3)cccc2n1` [Example I-077] registered an inhibition at 3 µM at hERG channel (IKr) of 4.33%. Moreover, the results for the Ki in series [1] (setting [3]) and in series [2] were more than 1800 nM and 0.38 nM, respectively.
Turning to `Cc1ncc(OCC(=O)N[C@H]2CC[C@](F)(CCN3CCc4nc(OCC(C)(F)F)sc4CC3)CC2)cn1` [Example I-044], the inhibition at 3 µM against hERG channel (IKr) stood at 23.7%. Moreover, the Ki in series [1] (setting [3]) came to 610 nM; in series [2], 0.14 nM.
The compound `Cn1cc2c(C(=O)N[C@H]3CC[C@H](CCN4CCc5nc(OCC(C)(F)F)sc5CC4)OC3)cccc2n1` [Example I-009] came in with an inhibition at 3 µM on hERG channel (IKr) of 33.8%. Also, the Ki was determined as 690 nM in series [1] (setting [3]) and 0.12 nM in series [2].
The corresponding values for `CC[C@@H](C)Oc1ccc2c(n1)CCN(CC[C@H]1CC[C@H](NC(=O)c3cccc4nn(C)cc34)CC1)CC2` [Example I-076] are 13.4%, more than 1900 nM and 0.1 nM.
For the compound `Cc1ncc(CC(=O)N[C@H]2CC[C@](F)(CCN3CCc4nc(OCC(F)F)sc4CC3)CC2)o1` [Example I-060], testing at 3 µM on hERG channel (IKr) gave an inhibition of 17.7%. For the same compound, the Ki in series [1] (setting [3]) amounted to 1400 nM; in series [2], 0.59 nM.
As for `Cn1ncc(CC(=O)N[C@H]2CC[C@](F)(CCN3CCc4nc(OCC(F)F)sc4CC3)CC2)n1` [I′-41], on hERG channel (IKr), the inhibition at 3 µM stood at 24%. Moreover, the Ki in series [1] ([3H]-Methylspiperone 1.2 nM) is 1900 nM; in series [2], 0.49 nM.
As for `Cc1cnc(CC(=O)N[C@H]2CC[C@](F)(CCN3CCc4nc(OCC(C)(F)F)sc4CC3)CC2)o1` [Example I-015], the inhibition at 3 µM on hERG channel (IKr) is 24.3%. Further, the values for the Ki in series [1] (setting [3]) and in series [2] were 1000 nM and 0.26 nM, respectively.
In the case of `Cn1cc(/C=C/C(=O)N[C@H]2CC[C@](F)(CCN3CCc4nc(OCC(C)(F)F)sc4CC3)CC2)cn1` [Example I-074], the inhibition at 3 µM against hERG channel (IKr) is 31%. In addition, the figures for the Ki in series [1] (setting [3]) and in series [2] were 63 nM and 0.025 nM, respectively.
As to `CCc1ncccc1C(=O)N[C@H]1CC[C@H](CCN2CCc3ccc(OC4CCC4)nc3CC2)CC1` [Example I-088], the inhibition at 3 µM against hERG channel (IKr) stood at 32%. For the same compound, the Ki in series [1] (setting [3]) worked out at 1300 nM; in series [2], 0.8 nM.
Take `Cc1nc(CC(=O)N[C@H]2CC[C@](F)(CCN3CCc4nc(OCCC(F)(F)F)sc4CC3)CC2)no1` [Example I-114]: on hERG channel (IKr), the inhibition at 3 µM worked out at 29%. The Ki was more than 2200 nM in series [1] (setting [3]) and 0.59 nM in series [2].
For the compound `Cn1cc2c(C(=O)N[C@H]3CC[C@H](CCN4CCc5sc([C@H]6C[C@@H](F)C6)nc5C4)CC3)cccc2n1` [Example I-035], at hERG channel (IKr), the inhibition at 3 µM is 16%. Moreover, the Ki in series [1] (setting [3]) was found to be 210 nM; in series [2], 0.18 nM.
The like results for `Cn1cc(CC(=O)N[C@H]2CC[C@H](CCN3CCc4ccc(OC5CCC5)nc4CC3)CC2)cn1` [Example I-032] were, in that order, 31.9%, more than 2200 nM and 0.48 nM.
